Reference: ChEMBL document CHEMBL1909046, “DrugMatrix in vitro pharmacology data”

What was measured:
[1] = DRUGMATRIX: Sodium/nucleoside co-transporter radioligand binding (ligand: nitrobenzylthioinosine); format: cell membranes, Cavia porcellus, Dunkin-Hartley, Cerebral cortex, Membrane; settings: Not Active = under 50% inhibition at 10 µM
[2] = target: T1, Receptor-type tyrosine-protein phosphatase C (Homo sapiens, UniProt P08575); parameters: species or system Escherichia coli;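 further: inhibition of CD45 enzyme activity measured using DiFMUP as substrate; in other assays of this panel Not Active means under 50% inhibition at 10 µM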
T1 sequence (P08575 whole entry): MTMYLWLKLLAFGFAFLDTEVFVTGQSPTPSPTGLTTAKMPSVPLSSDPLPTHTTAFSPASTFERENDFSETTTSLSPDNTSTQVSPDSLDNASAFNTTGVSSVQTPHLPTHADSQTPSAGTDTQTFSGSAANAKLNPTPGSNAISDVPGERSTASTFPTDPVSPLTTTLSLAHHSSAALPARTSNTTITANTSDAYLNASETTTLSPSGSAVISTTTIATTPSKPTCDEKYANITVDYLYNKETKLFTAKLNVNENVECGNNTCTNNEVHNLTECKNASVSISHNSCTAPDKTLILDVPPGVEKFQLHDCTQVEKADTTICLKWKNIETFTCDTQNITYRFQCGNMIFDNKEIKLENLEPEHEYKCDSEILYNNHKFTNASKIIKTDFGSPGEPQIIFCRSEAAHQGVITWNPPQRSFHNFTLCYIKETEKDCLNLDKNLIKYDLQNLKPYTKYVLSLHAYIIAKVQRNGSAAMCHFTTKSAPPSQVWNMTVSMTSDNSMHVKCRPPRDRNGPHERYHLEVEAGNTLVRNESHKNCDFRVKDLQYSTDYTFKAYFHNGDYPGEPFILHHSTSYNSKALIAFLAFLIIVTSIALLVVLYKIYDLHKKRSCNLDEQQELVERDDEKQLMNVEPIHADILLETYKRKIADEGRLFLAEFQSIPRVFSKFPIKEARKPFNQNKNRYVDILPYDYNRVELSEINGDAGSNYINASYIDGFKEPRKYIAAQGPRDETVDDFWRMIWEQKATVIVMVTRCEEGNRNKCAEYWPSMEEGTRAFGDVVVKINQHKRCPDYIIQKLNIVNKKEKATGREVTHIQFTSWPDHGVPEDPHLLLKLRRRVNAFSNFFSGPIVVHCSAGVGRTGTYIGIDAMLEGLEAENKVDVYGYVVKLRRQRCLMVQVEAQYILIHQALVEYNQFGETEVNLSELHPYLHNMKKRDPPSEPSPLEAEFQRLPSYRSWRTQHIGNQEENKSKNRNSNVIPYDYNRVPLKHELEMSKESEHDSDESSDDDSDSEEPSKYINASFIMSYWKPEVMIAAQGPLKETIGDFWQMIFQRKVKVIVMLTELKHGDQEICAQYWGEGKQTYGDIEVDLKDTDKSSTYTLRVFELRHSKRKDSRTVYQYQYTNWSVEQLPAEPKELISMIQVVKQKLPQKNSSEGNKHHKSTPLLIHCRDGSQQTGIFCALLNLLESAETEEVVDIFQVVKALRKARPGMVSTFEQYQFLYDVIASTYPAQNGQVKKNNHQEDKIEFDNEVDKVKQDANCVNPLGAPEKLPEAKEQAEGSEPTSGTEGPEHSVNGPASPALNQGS

[3] = target: T2, C-X-C chemokine receptor type 1 (Homo sapiens, UniProt P25024); further: in other assays of this panel Not Active means under 50% inhibition at 10 µM
T2 sequence (P25024 whole entry): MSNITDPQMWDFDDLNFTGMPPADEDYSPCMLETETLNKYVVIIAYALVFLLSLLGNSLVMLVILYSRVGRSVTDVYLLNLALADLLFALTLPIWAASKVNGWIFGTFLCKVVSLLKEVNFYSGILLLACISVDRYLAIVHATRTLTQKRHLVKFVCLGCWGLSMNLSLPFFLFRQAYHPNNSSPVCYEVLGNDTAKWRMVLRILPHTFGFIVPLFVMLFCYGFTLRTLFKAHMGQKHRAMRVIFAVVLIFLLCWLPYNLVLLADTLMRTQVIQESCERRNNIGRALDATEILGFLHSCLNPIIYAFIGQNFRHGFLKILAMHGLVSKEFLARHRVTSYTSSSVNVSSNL

[4] = DRUGMATRIX: Glutamate, Kainate radioligand binding (ligand: [3H] Kainic acid); format: cell membranes, Rattus norvegicus, Wistar, Brain, Membrane; settings: Not Active = under 50% inhibition at 10 µM
[5] = DRUGMATRIX: Glutamate, NMDA, Phencyclidine radioligand binding (ligand: [3H] TCP); format: cell membranes, Rattus norvegicus, Wistar, Cerebral cortex, Membrane; settings: Not Active = under 50% inhibition at 10 µM
Endothelin-1 receptor = target: T3, Endothelin-1 receptor (Homo sapiens, UniProt P25101); format: cell membranes, Membrane; settings: cho-k1; further: in other assays of this panel Not Active means under 50% inhibition at 10 µM
T3 sequence (P25101 whole entry): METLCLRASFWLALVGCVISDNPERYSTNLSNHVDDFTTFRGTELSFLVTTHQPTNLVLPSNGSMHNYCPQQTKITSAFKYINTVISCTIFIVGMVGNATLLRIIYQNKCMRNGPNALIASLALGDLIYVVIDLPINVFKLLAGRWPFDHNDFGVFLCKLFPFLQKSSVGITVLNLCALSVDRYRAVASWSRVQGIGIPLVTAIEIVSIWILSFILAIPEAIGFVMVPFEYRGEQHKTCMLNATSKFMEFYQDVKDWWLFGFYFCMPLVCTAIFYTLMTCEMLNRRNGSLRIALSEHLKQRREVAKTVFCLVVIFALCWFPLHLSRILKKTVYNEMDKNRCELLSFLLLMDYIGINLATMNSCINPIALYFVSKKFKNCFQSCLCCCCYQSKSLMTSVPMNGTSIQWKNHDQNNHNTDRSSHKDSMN

[6] = DRUGMATRIX: Tumor Necrosis Factor (TNF), Non-Selective radioligand binding (ligand: [125I] TNF-alpha); format: cell membranes, Membrane; settings: u-937; Not Active = under 50% inhibition at 10 µM
[7] = DRUGMATRIX: Platelet-Derived Growth Factor (PDGF) radioligand binding (ligand: [125I] PDGF); format: cell-based; settings: nih3t3; Not Active = under 50% inhibition at 10 µM
Vasopressin V1a receptor = Vasopressin V1a receptor (Homo sapiens, UniProt P37288); format: cell membranes, Membrane; settings: hek293; further: in other assays of this panel Not Active means under 50% inhibition at 10 µM
Chain of Vasopressin V1a receptor (P37288 whole entry): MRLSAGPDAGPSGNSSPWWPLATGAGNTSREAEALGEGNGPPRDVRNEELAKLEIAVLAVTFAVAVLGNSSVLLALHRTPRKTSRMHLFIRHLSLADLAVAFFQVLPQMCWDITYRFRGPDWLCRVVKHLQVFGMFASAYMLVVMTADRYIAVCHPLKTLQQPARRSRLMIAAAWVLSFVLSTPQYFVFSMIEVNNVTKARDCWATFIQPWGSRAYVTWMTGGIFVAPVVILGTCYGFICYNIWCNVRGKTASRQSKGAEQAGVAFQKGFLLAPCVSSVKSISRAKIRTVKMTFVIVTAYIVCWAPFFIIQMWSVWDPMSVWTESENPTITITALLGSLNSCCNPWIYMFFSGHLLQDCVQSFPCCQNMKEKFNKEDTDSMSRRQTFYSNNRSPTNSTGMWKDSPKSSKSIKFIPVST

CC(N)Cc1c[nH]c2ccc(OCc3cccs3)cc12 (stereo unspecified) [BW-723C86]
Not Active: IC50 [1] | Ki [1] | IC50 [2] | IC50 [3] | IC50 [4] | Ki [4] | IC50 [5] | Ki [5] | IC50 (Endothelin-1 receptor) | IC50 [6] | Ki [6] | IC50 [7] | Ki [7] | IC50 (Vasopressin V1a receptor)

CCN(CCO)CCCC(C)Nc1ccnc2cc(Cl)ccc12 (stereo unspecified) [HYDROXYCHLOROQUINE]
Not Active: IC50 [1] | Ki [1] | IC50 [2] | IC50 [3] | IC50 [4] | Ki [4] | IC50 [5] | Ki [5] | IC50 (Endothelin-1 receptor) | IC50 [6] | Ki [6] | IC50 [7] | Ki [7] | IC50 (Vasopressin V1a receptor)

c1ccc2sc(SSc3nc4ccccc4s3)nc2c1 [BENZOTHIAZYL DISULFIDE]
Not Active: IC50 [1] | Ki [1] | IC50 [2] | IC50 [3] | IC50 [4] | Ki [4] | IC50 [5] | Ki [5] | IC50 (Endothelin-1 receptor) | IC50 [6] | Ki [6] | IC50 [7] | Ki [7] | IC50 (Vasopressin V1a receptor)

CC(C)Cc1ccc([C@H](C)C(=O)O)cc1 [DEXIBUPROFEN]
Not Active: IC50 [1] | Ki [1] | IC50 [2] | IC50 [3] | IC50 [4] | Ki [4] | IC50 [5] | Ki [5] | IC50 (Endothelin-1 receptor) | IC50 [6] | Ki [6] | IC50 [7] | Ki [7] | IC50 (Vasopressin V1a receptor)

Cl.NC[C@H]1CC[C@H](C(=O)Oc2ccc(CCC(=O)O)cc2)CC1 [CETRAXATE HYDROCHLORIDE]
Not Active: IC50 [1] | Ki [1] | IC50 [2] | IC50 [3] | IC50 [4] | Ki [4] | IC50 [5] | Ki [5] | IC50 (Endothelin-1 receptor) | IC50 [6] | Ki [6] | IC50 [7] | Ki [7] | IC50 (Vasopressin V1a receptor)

Nc1nc(N)c2nc(CNc3ccc(C(=O)N[C@@H](CCC(=O)O)C(=O)O)cc3)cnc2n1 [AMINOPTERIN]
Not Active: IC50 [1] | Ki [1] | IC50 [2] | IC50 [3] | IC50 [4] | Ki [4] | IC50 [5] | Ki [5] | IC50 (Endothelin-1 receptor) | IC50 [6] | Ki [6] | IC50 [7] | Ki [7] | IC50 (Vasopressin V1a receptor)

NC(=O)NC(=O)Cc1ccccc1 [PHENACEMIDE]
Not Active: IC50 [1] | Ki [1] | IC50 [2] | IC50 [3] | IC50 [4] | Ki [4] | IC50 [5] | Ki [5] | IC50 (Endothelin-1 receptor) | IC50 [6] | Ki [6] | IC50 [7] | Ki [7] | IC50 (Vasopressin V1a receptor)

C[N+](C)(C)CCOC(N)=O.[Cl-] [CARBACHOL]
Not Active: IC50 [1] | Ki [1] | IC50 [2] | IC50 [3] | IC50 [4] | Ki [4] | IC50 [5] | Ki [5] | IC50 (Endothelin-1 receptor) | IC50 [6] | Ki [6] | IC50 [7] | Ki [7] | IC50 (Vasopressin V1a receptor)

O=C1c2ccccc2C(=O)C1c1ccccc1 [PHENINDIONE]
Not Active: IC50 [1] | Ki [1] | IC50 [2] | IC50 [3] | IC50 [4] | Ki [4] | IC50 [5] | Ki [5] | IC50 (Endothelin-1 receptor) | IC50 [6] | Ki [6] | IC50 [7] | Ki [7] | IC50 (Vasopressin V1a receptor)
